How the values were obtained:
[1] = The drug is tested on Collinsella intestinalis strain: DSM13280 for biotransformation. The drug concentrations were measured before and after a 12-h incubation by liquid-chromatography-coupled mass spectrometry (LC–MS); settings: 2 µM
[2] = The drug is tested on Bacteroides coprophilus strain: DSM18228 for biotransformation. The drug concentrations were measured before and after a 12-h incubation by liquid-chromatography-coupled mass spectrometry (LC–MS); settings: 2 µM
[3] = The drug is tested on Bacteroides finegoldii strain: DSM17565 for biotransformation. The drug concentrations were measured before and after a 12-h incubation by liquid-chromatography-coupled mass spectrometry (LC–MS); settings: 2 µM
[4] = The drug is tested on Bacteroides fragilis strain: HMW610 for biotransformation. The drug concentrations were measured before and after a 12-h incubation by liquid-chromatography-coupled mass spectrometry (LC–MS); settings: 2 µM
[5] = The drug is tested on Anaerococcus hydrogenalis strain: DSM7454 for biotransformation. The drug concentrations were measured before and after a 12-h incubation by liquid-chromatography-coupled mass spectrometry (LC–MS); settings: 2 µM
[6] = The drug is tested on Blautia luti strain: DSM14534 for biotransformation. The drug concentrations were measured before and after a 12-h incubation by liquid-chromatography-coupled mass spectrometry (LC–MS); assay type: ADME; set-up: dose 2 uM, timepoint 0 vs 12 hours; settings: 2 µM
[7] = The drug is tested on Clostridium asparagiforme strain: DSM15981 for biotransformation. The drug concentrations were measured before and after a 12-h incubation by liquid-chromatography-coupled mass spectrometry (LC–MS); assay type: ADME; set-up: dose 2 uM, timepoint 0 vs 12 hours; settings: enterocloster asparagiformis, 2 µM
[8] = The drug is tested on Clostridium sporogenes strain: ATCC15579 for biotransformation. The drug concentrations were measured before and after a 12-h incubation by liquid-chromatography-coupled mass spectrometry (LC–MS); settings: 2 µM
[9] = The drug is tested on Coprococcus comes strain: ATCC27758 for biotransformation. The drug concentrations were measured before and after a 12-h incubation by liquid-chromatography-coupled mass spectrometry (LC–MS); assay type: ADME; set-up: dose 2 uM, timepoint 0 vs 12 hours; settings: 2 µM
[10] = The drug is tested on Dorea formicigenerans strain: ATCC27755 for biotransformation. The drug concentrations were measured before and after a 12-h incubation by liquid-chromatography-coupled mass spectrometry (LC–MS); settings: 2 µM
[11] = The drug is tested on Eubacterium ventriosum strain: ATCC27560 for biotransformation. The drug concentrations were measured before and after a 12-h incubation by liquid-chromatography-coupled mass spectrometry (LC–MS); assay type: ADME; set-up: dose 2 uM, timepoint 0 vs 12 hours; settings: 2 µM
[12] = The drug is tested on Ruminococcus gnavus strain: ATCC29149 for biotransformation. The drug concentrations were measured before and after a 12-h incubation by liquid-chromatography-coupled mass spectrometry (LC–MS); settings: mediterraneibacter gnavus, 2 µM
[13] = The drug is tested on Subdoligranulum variabile strain: DSM15176 for biotransformation. The drug concentrations were measured before and after a 12-h incubation by liquid-chromatography-coupled mass spectrometry (LC–MS); settings: 2 µM
[14] = bacteroides intestinalis, 12 h, 2 µM
Description: The drug is tested on Bacteroides intestinalis strain: DSM17393 for biotransformation. The drug concentrations were measured before and after a 12-h incubation by liquid-chromatography-coupled mass spectrometry (LC–MS)

[15] = bacteroides stercoris, 12 h, 2 µM
Description: The drug is tested on Bacteroides stercoris strain: ATCC43183 for biotransformation. The drug concentrations were measured before and after a 12-h incubation by liquid-chromatography-coupled mass spectrometry (LC–MS)

[16] = bacteroides thetaiotaomicron, 12 h, 2 µM
Description: The drug is tested on Bacteroides thetaiotaomicron strain: 7330 for biotransformation. The drug concentrations were measured before and after a 12-h incubation by liquid-chromatography-coupled mass spectrometry (LC–MS)

[17] = segatella copri, 12 h, 2 µM
Description: The drug is tested on Prevotella copri strain: DSM18205 for biotransformation. The drug concentrations were measured before and after a 12-h incubation by liquid-chromatography-coupled mass spectrometry (LC–MS)

[18] = limosilactobacillus reuteri cf48-3a, 12 h, 2 µM
Description: The drug is tested on Lactobacillus reuteri CF48-3A strain: BEI HM-102 for biotransformation. The drug concentrations were measured before and after a 12-h incubation by liquid-chromatography-coupled mass spectrometry (LC–MS)

[19] = roseburia intestinalis, 12 h, 2 µM
Description: The drug is tested on Roseburia intestinalis strain: L1-82 for biotransformation. The drug concentrations were measured before and after a 12-h incubation by liquid-chromatography-coupled mass spectrometry (LC–MS)

[20] = akkermansia muciniphila, 12 h, 2 µM
Description: The drug is tested on Akkermansia muciniphila strain: ATCC BAA-835 for biotransformation. The drug concentrations were measured before and after a 12-h incubation by liquid-chromatography-coupled mass spectrometry (LC–MS)

SMILES | Bacterial Biotransformation [1] | Bacterial Biotransformation [2] | Bacterial Biotransformation [3] | Bacterial Biotransformation [4] | Bacterial Biotransformation [5] | Bacterial Biotransformation [6] | Bacterial Biotransformation [7] | Bacterial Biotransformation [8] | Bacterial Biotransformation [9] | Bacterial Biotransformation [10] | Bacterial Biotransformation [11] | Bacterial Biotransformation [12] | Bacterial Biotransformation [13] | Bacterial Biotransformation [14] | Bacterial Biotransformation [15] | Bacterial Biotransformation [16] | Bacterial Biotransformation [17] | Bacterial Biotransformation [18] | Bacterial Biotransformation [19] | Bacterial Biotransformation [20]
CC(=O)O[C@]1(C(C)=O)CC[C@H]2[C@@H]3C=C(Cl)C4=CC(=O)[C@@H]5C[C@@H]5[C@]4(C)[C@H]3CC[C@@]21C [CYPROTERONE ACETATE] | Compound NOT metabolized | Compound metabolized | Compound NOT metabolized | Compound metabolized | Compound NOT metabolized | Compound NOT metabolized | Compound NOT metabolized | Compound metabolized | Compound NOT metabolized | Compound NOT metabolized | Compound NOT metabolized | Compound NOT metabolized | Compound NOT metabolized | Compound metabolized | Compound metabolized | Compound metabolized | Compound NOT metabolized | Compound NOT metabolized | Compound NOT metabolized | Compound NOT metabolized
CC(=O)OCC(=O)[C@@]12N=C(C)O[C@@H]1C[C@H]1[C@@H]3CCC4=CC(=O)C=C[C@]4(C)[C@H]3[C@@H](O)C[C@@]12C [DEFLAZACORT] | Compound metabolized | Compound metabolized | Compound metabolized | Compound metabolized | Compound metabolized | Compound metabolized | Compound metabolized | Compound metabolized | Compound metabolized | Compound metabolized | Compound metabolized | Compound metabolized | Compound metabolized | Compound metabolized | Compound metabolized | Compound metabolized | Compound metabolized | Compound metabolized | Compound metabolized | Compound metabolized
CC(=O)Nc1ccc(OC(C)=O)cc1 [DIACETAMATE] | Compound metabolized | Compound metabolized | Compound metabolized | Compound metabolized | Compound metabolized | Compound metabolized | Compound metabolized | Compound metabolized | Compound metabolized | Compound metabolized | Compound metabolized | Compound metabolized | Compound metabolized | Compound metabolized | Compound metabolized | Compound metabolized | Compound metabolized | Compound metabolized | Compound metabolized | Compound metabolized
CCN(CC)C(=O)/C(C#N)=C/c1cc(O)c(O)c([N+](=O)[O-])c1 [ENTACAPONE] | Compound metabolized | Compound metabolized | Compound metabolized | Compound metabolized | Compound metabolized | Compound metabolized | Compound metabolized | Compound metabolized | Compound metabolized | Compound metabolized | Compound metabolized | Compound metabolized | Compound metabolized | Compound metabolized | Compound metabolized | Compound metabolized | Compound metabolized | Compound metabolized | Compound metabolized | Compound metabolized
CCOc1ccc2nc(S(N)(=O)=O)sc2c1 [ETHOXZOLAMIDE] | Compound metabolized | Compound metabolized | Compound metabolized | Compound NOT metabolized | Compound metabolized | Compound metabolized | Compound metabolized | Compound metabolized | Compound metabolized | Compound metabolized | Compound metabolized | Compound metabolized | Compound metabolized | Compound metabolized | Compound metabolized | Compound metabolized | Compound metabolized | Compound metabolized | Compound metabolized | Compound metabolized
CC[C@@H](CO)NC(=O)[C@@H]1C=C2c3cccc4c3c(cn4C)C[C@H]2N(C)C1.O=C(O)/C=C\C(=O)O [METHYSERGIDE MALEATE] | Compound NOT metabolized | Compound metabolized | Compound metabolized | Compound NOT metabolized | Compound metabolized | Compound metabolized | Compound metabolized | Compound metabolized | Compound metabolized | Compound metabolized | Compound metabolized | Compound metabolized | Compound metabolized | Compound metabolized | Compound metabolized | Compound metabolized | Compound metabolized | Compound metabolized | Compound metabolized | Compound metabolized
CC[C@H](C)C(=O)O[C@H]1CCC=C2C=C[C@H](C)[C@H](CC[C@@H]3C[C@@H](O)CC(=O)O3)[C@H]21 [MEVASTATIN] | Compound metabolized | Compound metabolized | Compound metabolized | Compound NOT metabolized | Compound metabolized | Compound metabolized | Compound metabolized | Compound metabolized | Compound metabolized | Compound metabolized | Compound metabolized | Compound metabolized | Compound metabolized | Compound metabolized | Compound metabolized | Compound metabolized | Compound metabolized | Compound metabolized | Compound metabolized | Compound metabolized

Reference: ChEMBL document CHEMBL5303573, “Mapping human microbiome drug metabolism by gut bacteria and their genes” (Nature, 2019)
